According to PubChem BioAssay (NCI):
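Grown in 96-well plates, cells were treated for 48 hours with each compound at five concentrations. Insufficient inhibition: endpoint recorded as highest concentration tested. Here, GI50 denotes the concentration required for 50% inhibition of growth. The concentration for full growth arrest is given as TGI.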

What was measured:
Assay in all cases: NCI tumour cell line growth inhibition, 48 h
[1] = system: DLD-1 colon
[2] = system: DMS 273 small cell lung
[3] = system: KM20L2 colon
[4] = system: M19-MEL melanoma
[5] = system: XF 498 CNS
[6] = system: BT-549 breast
[7] = system: DU-145 prostate
[8] = system: HS 578T breast
[9] = system: MDA-MB-231 breast
[10] = system: MDA-MB-435
[11] = system: PC-3 prostate
[12] = system: T-47D breast

SMILES | TGI [1] [µM] | TGI [2] [µM] | TGI [3] [µM] | TGI [4] [µM] | TGI [5] [µM] | TGI [6] [µM] | TGI [7] [µM] | TGI [8] [µM] | TGI [9] [µM] | TGI [10] [µM] | TGI [11] [µM] | TGI [12] [µM] | GI50 [6] [µM] | GI50 [7] [µM] | GI50 [8] [µM] | GI50 [9] [µM] | GI50 [10] [µM] | GI50 [11] [µM] | GI50 [12] [µM]
CCc1cccc(C)c1NC(=O)C(=O)Cc1nc2ccccc2s1 | > 100 | > 100 | > 100 | > 100 |  |  |  |  |  |  |  |  |  |  |  |  |  |  | 
COC(=O)C1=CC2C(=O)OC1CC2C#N (stereo not drawn) | > 100 | > 100 | > 100 |  | > 100 |  |  |  |  |  |  |  |  |  |  |  |  |  | 
COc1cc([C@H]2OC[C@H]3[C@@H]2CO[C@@H]3c2cc(OC)c3c(c2)OCO3)cc(OC)c1OC |  |  |  |  |  | > 100 | > 100 | > 100 | > 100 | > 100 | > 100 | > 100 |  |  |  |  |  |  | 
Nc1nc(Nc2ccc(C3CCC(N4CCOCC4)CC3)cc2)nn1-c1ccccn1 (stereo not drawn) |  |  |  |  |  | 6.54 | > 100 | 7.41 | > 100 | > 100 | > 100 | > 100 | 2.52 | 6.4 | 1.64 | 5.34 | 3.57 | 5.76 | > 31.5
O=[N+]([O-])c1cccc([As]=[As]c2cccc([N+](=O)[O-])c2)c1 (stereo not drawn) |  |  |  |  |  | 0.204 | 0.309 | 0.498 | 0.212 | 0.271 | 0.297 | 0.164 | 0.0765 | 0.163 | 0.098 | 0.0776 | 0.122 | 0.147 | 0.0358
O=C(/C=C/c1ccc([N+](=O)[O-])cc1)c1ccc2c3c(cccc13)CC2 |  |  |  |  |  | > 90.4 | > 40.9 | > 30.8 | > 100 | > 63.4 | > 100 | > 24.8 | 23.6 | 4.23 |  | > 52.8 | 15.8 | 4.72 | 1.57
Cn1cc(C2=C(c3cccc(OCC(O)CO)c3)C(=O)NC2=O)c2ccccc21 (stereo not drawn) |  |  |  |  |  | > 25 | > 25 | > 25 | > 25 | > 25 | > 25 | > 25 | > 25 | > 25 | > 15.2 | > 25 | > 19.1 | > 25 | > 25
O=C(Nc1ccc(Cl)cc1)Nc1ccc(Nc2nncc3ccccc23)cc1 |  |  |  |  |  | 9.28 | 26.9 | 27.7 | 15.9 | 9.42 | 11 | 5.35 | 2.15 | 3.17 | 3.83 | 3.4 | 2.14 | 2.32 | 1.03
CC[C@H](CO)Nc1nc(NCc2ccccc2)n2ncc(C(C)C)c2n1 |  |  |  |  |  | 5.29 | 9.52 | 6.16 | 9.47 | 10.1 | 12.3 | 13.3 | 1.56 | 1.3 | 1.59 | 2.37 | 2.06 | 0.927 | 2.48
